Test results as given in article PMC11129182, “Development of Inhibitors, Probes, and PROTAC Provides a Complete Toolbox to Study PARK7 in the Living Cell” (Journal of Medicinal Chemistry, 2024).
Read-outs that look alike come from different tables or passages of the source. Residues, ends and D or L forms follow the SMILES beside them. *: point of attachment. Cbz = O=C(OCc1ccccc1)*

What was measured:
PARK7 [1] = biological target: T1, PARK7 (Homo sapiens, UniProt Q99497); assay: Hit validation and pure-compound testing in the PARK7 FP assay with JYQ-107; assay type: biochemical; details: for inhibition at 0.25 µM: read-out: % Inhibition 0.25 µM; for potency in FP assay compared to JYQ-88: 0.25 and 1 μM
T1 sequence (Q99497 1-189): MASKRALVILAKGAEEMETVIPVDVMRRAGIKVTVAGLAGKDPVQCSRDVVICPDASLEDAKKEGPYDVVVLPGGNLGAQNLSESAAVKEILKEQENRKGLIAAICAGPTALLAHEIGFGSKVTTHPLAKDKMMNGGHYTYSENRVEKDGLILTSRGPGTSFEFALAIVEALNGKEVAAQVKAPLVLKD

PARK7 [2] = biological target: T1, PARK7; assay: Cell-based competition assay with probe JYQ-92 in HEK293T cells; details: live HEK293T cells, 5 μM, 24 h
Procedure: Samples were resolved by SDS-PAGE and analyzed by fluorescence scanning and Western blotting (Figure 2B). The target engagement of cellular PARK7 is reflected by the disappearance of the PARK7 labeling band in the fluorescence gel scan and by the loss of the shifted probe-labeled PARK7 band in the Western blot.
HEK293T cells were treated with the indicated concentrations of indicated inhibitors for indicated incubation time.
Figure S1. Assessment of the cell permeability of JYQ -88. (A) Structure of JYQ-92.
(B) Target engagement of JYQ-88 in HEK293T cells. HEK293T cells were incubated […]
with PARK7 probe JYQ-92 fo r 1 h at 37 °C. The reactions were stopped by the addition of NuPAGE™ LDS sample buffer (4x). Samples were resolved by SDS -PAGE using […]
fluorescence scanning on a Typhoon FLA 9500 (GE Healthcare Life Sciences) using […]
The disappearance of the JYQ-92-labeled band in […]
of JYQ-88 is used as a measurement of cellular PARK7 engagement with JYQ -88.
(§1) (1 picture or pasted object on this page, not shown here)

PARK7 [3] = biological target: T1, PARK7; assay: biochemical; design: Fluorescence polarization competition: residual PARK7 labelling by JYQ-107 probe after 1 h preincubation, % inhibition; details: sheet Validation pure compounds
Procedure: The 15 pure compounds from the two different approaches (5 compounds from structure modification and 10 compounds from HTS) were assessed for their potency to inhibit PARK7 at 0.25 and 1 μM final concentrations using the FP assay (Figure 2A). […] Fifty four compounds showing inhibition above 90% were picked and checked at three different concentrations. Using a Labcyte Echo550 acoustic dispenser, 20, 10, and 5 nL of 1 mM compound stock solutions were transferred from the source plates into an empty 384-well plate to obtain 1, 0.5, 0.25 μM final concentrations. […] The relative loss of FP signal compared with reference controls (5 mM NEM, 100% inhibition, and DMSO, 0% inhibition) was used to calculate the remaining enzyme activity. The inhibition percentage of these 54 compounds was plotted as heatmaps using Graphpad Prism 9.0.1 software. […] Stock solutions of 0.26 μM PARK7 and 80 nM JYQ-107 were prepared. Using a Labcyte Echo550 acoustic dispenser, 10 nL of 1 mM DMSO stock solutions of the library compounds was transferred from the source plates into the empty 1536-well screening plates to obtain a 1.25 μM final compound concentration. Next, PARK7 (6 μL, final concentration 0.2 μM) was dispensed using a Biotek MultiflowFX [compound left out] dispenser and incubated for 2 h, followed by dispensing the probe JYQ-107 (2 μL, final concentration 20 nM). […] The percentage inhibition of each compound was calculated from the FP values, normalized to the positive (5 mM N-ethylmaleimide, 100% inhibition) and negative (DMSO, 0% inhibition) controls.

PARK7 [4] = biological target: T1, PARK7; assay: Activity evaluation of PROTACs in cells (PARK7 degradation, immunoblot); details: A549 cells; for effect of pretreatment on JYQ-194-induced PARK7 degradation: pretreatment 4 h (5 μM pomalidomide, 5 μM JYQ-173 or 10 μM MG-132), then JYQ-194 5 μM 8 h
Procedure: A549 cells were seeded into 6-well plates. The next day after seeding, cells were incubated with the indicated concentrations of indicated PROTACs for 8 h. The cells were then washed with PBS and collected. The collected cell pellets were lysed with Tris-triton buffer as described above. The prepared cell lysate of each sample (10 μL) was added 5 μL 3× LDS + 5% β-mercaptoethanol, and boiled for 10 min.

PARK7 [5] = biological target: T1, PARK7; assay: High-throughput screen of the crude compound library, PARK7 fluorescence polarization (FP) assay with FP reagent JYQ-107; assay type: biochemical; details: for inhibition at 1.25 µM: crude compound library, read-out: HTS FP assay %Inhibition (1.25 µM)
DUBs = assay: Activity-based DUB profiling with Rho-Ub-PA probe in HEK293T cells; assay type: cell-based, human; details: 5 µM, 24 h
Procedure: Figure S3. Activity evaluation of inhibitors against DUBs in HEK293T cells. (A ) Inhibitors from structure modification. (B) Inhibitors from HTS. HEK293T cells were […]
incubation with Rho- Ub-PA probe for 30 min at 37 °C. Samples were resolved by SDS - […]
and visualized by fluorescence scanning on a Typhoon FLA 9500 (GE Healthcare Life […]
Nitrocellulose membranes and Western blot analysis.
as §1

[6] = crude compounds, 0.5 µM, read-out: % Inhibition 0.5 µM

SMILES	inhibition at 0.25 µM (PARK7 [1]; pure compounds, 0.25 µM) [%]	inhibition at 1 µM (PARK7 [1]; pure compounds) [%]	inhibition at 1.25 µM (PARK7 [5]) [%]	inhibition at 0.25 µM (PARK7 [1]; crude compounds, 0.25 µM) [%]	inhibition at 0.5 µM (PARK7 [1]; [6]) [%]	inhibition at 1 µM (PARK7 [1]; crude compounds) [%]	also measured
N#CN1CC[C@@H](C(=O)Nc2nc3c(s2)CN(C(=O)CN2CCOCC2)CC3)C1 [Compound 1, (R)-1-Cyano-N-(5-(2-morpholinoacetyl)-4,5,6,7-tetrahydrothiazolo[5,4-c]pyridin-2-yl)pyrrolidine-3-carboxamide]	62.8	87.7					potency in FP assay compared to JYQ-88 (PARK7 [1]; pure compounds): did not improve; cellular target engagement of PARK7 (PARK7 [2]): did not bind with PARK7 in cells
N#CN1CC[C@@H](C(=O)Nc2nc3c(s2)CN(C(=O)c2cccc(S(=O)(=O)NCCc4ccc(S(N)(=O)=O)cc4)c2)CC3)C1 [compound 199]							inhibition at 0.25 µM (PARK7 [3]): 80.7%; inhibition at 1 µM (PARK7 [3]): 94.6%
Nc1cccc2c1C(=O)N(C1CCC(=O)NC1=O)C2=O (stereo not drawn) [pomalidomide, reference compound]							effect of pretreatment on JYQ-194-induced PARK7 degradation (PARK7 [4]): abolished
N#CN1CC[C@@H](C(=O)Nc2nc3c(s2)CN(C(=O)c2cccc(S(=O)(=O)N4CCN(C(=O)Cn5cc(COCCOCCNc6cccc7c6C(=O)N(C6CCC(=O)NC6=O)C7=O)nn5)CC4)c2)CC3)C1 (stereo partly drawn) [JYQ-187]							PARK7 degradation (PARK7 [4]; 8 h): No degradation of PARK7 was observed
Cc1csc(-c2cccc(C(=O)N3CCc4nc(NC(=O)[C@@H]5CCN(C#N)C5)sc4C3)c2)n1 [Compound 334, (R)-1-Cyano-N-(5-(3-(4-methylthiazol-2-yl)benzoyl)-4,5,6,7-tetrahydrothiazolo[5,4-c]pyridine-2-yl)pyrrolidine-3-carboxamide]	84.2	95.6	89.4	68.5	86.9	97.3	inhibition of DUBs in cells (DUBs): showed inhibition of one or more DUBs, mainly UCHL1
N#CN1CC[C@@H](C(=O)Nc2nc3c(s2)CN(C(=O)CN2CCNCC2)CC3)C1 [Compound 4, (R)-1-Cyano-N-(5-(2-(piperazin-1-yl)acetyl)-4,5,6,7-tetrahydrothiazolo[5,4-c]pyridin-2-yl)pyrrolidine-3-carboxamide]	40.2	59.9					potency in FP assay compared to JYQ-88 (PARK7 [1]; pure compounds): lowered; cellular target engagement of PARK7 (PARK7 [2]): did not bind with PARK7 in cells
CC(C)C[C@@H](C=O)NC(=O)[C@H](CC(C)C)NC(=O)[C@H](CC(C)C)NC(=O)OCc1ccccc1 [MG-132, reference compound] (Cbz-Leu-Leu-Leu-aldehyde)							effect of pretreatment on JYQ-194-induced PARK7 degradation (PARK7 [4]): abolished
N#CN1CC[C@@H](C(=O)Nc2nc3c(s2)CN(C(=O)c2cccc(S(=O)(=O)N4CCN(C(=O)Cn5cc(COCCOCCOCCNc6cccc7c6C(=O)N(C6CCC(=O)NC6=O)C7=O)nn5)CC4)c2)CC3)C1 (stereo partly drawn) [JYQ-188]							PARK7 degradation (PARK7 [4]; 8 h): No degradation of PARK7 was observed
N#CN1CC[C@@H](C(=O)Nc2nc3c(s2)CN(C(=O)CC2CCNCC2)CC3)C1 [Compound 5, (R)-1-Cyano-N-(5-(2-(piperidin-4-yl)acetyl)-4,5,6,7-tetrahydrothiazolo[5,4-c]pyridin-2-yl)pyrrolidine-3-carboxamide]	38.5	71					potency in FP assay compared to JYQ-88 (PARK7 [1]; pure compounds): lowered; cellular target engagement of PARK7 (PARK7 [2]): did not bind with PARK7 in cells
N#CN1CC[C@@H](C(=O)Nc2nc3c(s2)CN(C(=O)c2cccc(O)c2)CC3)C1 [compound 3]							inhibition at 0.25 µM (PARK7 [3]): 58.4%; inhibition at 1 µM (PARK7 [3]): 90.1%
N#CN1CC[C@@H](C(=O)Nc2nc3c(s2)CNCC3)C1 [cyanimide amine precursor, (R)-1-cyano-N-(4,5,6,7-tetrahydrothiazolo[5,4-c]pyridin-2-yl)pyrrolidine-3-carboxamide]							inhibition at 1 µM (PARK7 [5]; read-out: % inhibition in HTS): ~40%; inhibition at 0.25 µM (PARK7 [1]): 3%; inhibition at 0.5 µM (PARK7 [1]; read-out: % inhibition 0.5 μM): 20%
N#CN1CC[C@@H](C(=O)Nc2nc3c(s2)CN(C(=O)c2cnc(-c4cccs4)s2)CC3)C1 [Compound 108, (R)-1-Cyano-N-(5-(2-(thiophen-2-yl)thiazole-5-carbonyl)-4,5,6,7-tetrahydrothiazolo[5,4-c]pyridin-2-yl)pyrrolidine-3-carboxamide]	67.9	93.1	90.8	64.2	85.7	98.5	inhibition of DUBs in cells (DUBs): showed inhibition of one or more DUBs, mainly UCHL1
N#CN1CC[C@@H](C(=O)Nc2nc3c(s2)CN(C(=O)c2cc(-n4cc(COCCOCCOCCNc5cccc6c5C(=O)N(C5CCC(=O)NC5=O)C6=O)nn4)ccc2F)CC3)C1 (stereo partly drawn) [JYQ-195]							concentration at which PARK7 degradation starts (PARK7 [4]; 0.1 to 5 μM, 8 h): 2 µM
N#CN1CC[C@@H](C(=O)Nc2nc3c(s2)CN(C(=O)c2cccc(COc4cccc(F)c4)c2)CC3)C1 [Compound 110]			94	56.4	78.2	93.5	
N#CN1CC[C@@H](C(=O)Nc2nc3c(s2)CN(C(=O)Cc2cnn(-c4ccccc4)n2)CC3)C1 [Compound 217]			78.9	55.5	85.4	94.3	
N#CN1CC[C@@H](C(=O)Nc2nc3c(s2)CN(C(=O)c2cnn(-c4ccccc4)n2)CC3)C1 [Compound 295]			89.6	38.6	65.4	88	
CN(CC1CC1)c1ccc(C(F)(F)F)cc1C(=O)N1CCc2nc(NC(=O)[C@@H]3CCN(C#N)C3)sc2C1 [Compound 304]			93.7	50.5	73.9	93.7	
N#CN1CC[C@@H](C(=O)Nc2nc3c(s2)CN(C(=O)c2cccc(S(=O)(=O)NCC4CCCO4)c2)CC3)C1 (stereo partly drawn) [compound 55]							inhibition at 0.25 µM (PARK7 [3]): 64.7%; inhibition at 1 µM (PARK7 [3]): 93.5%
CN1CCN(CC(=O)N2CCc3nc(NC(=O)[C@@H]4CCN(C#N)C4)sc3C2)CC1 [Compound 2, (R)-1-Cyano-N-(5-(2-(4-methylpiperazin-1-yl)acetyl)-4,5,6,7-tetrahydrothiazolo[5,4-c]pyridin-2-yl)pyrrolidine-3-carboxamide]	53.7	83.7					potency in FP assay compared to JYQ-88 (PARK7 [1]; pure compounds): did not improve; cellular target engagement of PARK7 (PARK7 [2]): did not bind with PARK7 in cells
